What was measured:
[1] = biological target: T1, CFTR in F508del/MF-HBE cells (Homo sapiens, UniProt P13569, DEL508-508); test: Ussing chamber assay of CFTR-mediated short-circuit currents (potentiator identification); assay type: cell-based; settings: with 10 μM Compound VII, 18-24 hours at 37° C., 20% human serum
T1 construct: human bronchial epithelial (HBE) cells derived from CF subjects heterozygous for F508del and a minimal function CFTR mutation; endogenous in cells; host or cells: primary human bronchial epithelial cells from CF subjects (F508del/MF-HBE)
Procedure: Ussing chamber experiments were performed using human bronchial epithelial (HBE) cells derived from CF subjects heterozygous for F508del and a minimal function CFTR mutation (F508del/MF-HBE) and cultured as previously described (Neuberger T., Burton B., Clark H., Van Goor F. Methods Mol Biol 2011:741:39-54). After four days the apical media was removed, and the cells were grown at an air liquid interface for >14 days prior to use.
To isolate the CFTR-mediated short-circuit (ISC) current, F508del/MF-HBE grown on Costar® Snapwell™ cell culture inserts were mounted in an Ussing chamber and the transepithelial ISC was measured under voltage-clamp recording conditions (Vhold=0 mV) at 37° C. The basolateral solution contained (in mM) 145 NaCl, 0.83 K2HPO4, 3.3 KH2PO4, 1.2 MgCl2, 1.2 CaCl2), 10 Glucose, 10 HEPES (pH adjusted to 7.4 with NaOH) and the apical solution contained (in mM) 145 NaGluconate, 1.2 MgCl2, 1.2 CaCl2), 10 glucose, 10 HEPES (pH adjusted to 7.4 with NaOH) and 30 μM amiloride to block the epithelial sodium channel. […] The CFTR-mediated ISC (μA/cm^2) for each condition was determined from the peak forskolin response to the steady-state current following inhibition.
The activity of the CFTR potentiator compounds on the CFTR-mediated ISC was determined in Ussing chamber studies as described above. […]

[2] = First-in-human clinical study of safety, tolerability and PK in healthy subjects; assay type: in vivo; settings: all cohorts (Parts A, B, C), single doses 0.6-540 mg, multiple total daily doses 2-315 mg
Procedure: In a first-in-human (FIH) clinical study of Compound I, designed to evaluate the safety, tolerability, and pharmacokinetics (PK) of Compound I in healthy subjects, an assessment of drug-drug interactions (DDIs) between Compound I and itraconazole and midazolam was conducted.
This first-in-human (FIH) study of Compound I included three parts (Parts A, B, and C).
Approximately 154 healthy adult subjects were planned to be enrolled in planned cohorts. Approximately 76 subjects were planned to be enrolled in Part A, approximately 48 subjects in Part B, and approximately 30 subjects in Part C. There was no pre-specified ratio of males to females, but reasonable effort was made to enroll females of non-childbearing potential in all dosing cohorts.
Six dose escalation cohorts each were planned for Parts A and B. Additional cohorts in Part A were enrolled based on data from previous cohorts. In each cohort, approximately eight subjects were randomized 3:1 to receive Compound I or placebo as a suspension, under fasted or fed conditions. Eight subjects were enrolled in food-effect Cohort A9 to receive open-label Compound I; subsequent cohorts were dosed under fed conditions. […]
Food effect was evaluated in open-label, single-sequence Cohort A9 to evaluate the effect of food on the PK of Compound I based on emerging PK data during dose escalation. […]

T1 sequence (P13569 with tags, fused parts or gaps DEL508-508): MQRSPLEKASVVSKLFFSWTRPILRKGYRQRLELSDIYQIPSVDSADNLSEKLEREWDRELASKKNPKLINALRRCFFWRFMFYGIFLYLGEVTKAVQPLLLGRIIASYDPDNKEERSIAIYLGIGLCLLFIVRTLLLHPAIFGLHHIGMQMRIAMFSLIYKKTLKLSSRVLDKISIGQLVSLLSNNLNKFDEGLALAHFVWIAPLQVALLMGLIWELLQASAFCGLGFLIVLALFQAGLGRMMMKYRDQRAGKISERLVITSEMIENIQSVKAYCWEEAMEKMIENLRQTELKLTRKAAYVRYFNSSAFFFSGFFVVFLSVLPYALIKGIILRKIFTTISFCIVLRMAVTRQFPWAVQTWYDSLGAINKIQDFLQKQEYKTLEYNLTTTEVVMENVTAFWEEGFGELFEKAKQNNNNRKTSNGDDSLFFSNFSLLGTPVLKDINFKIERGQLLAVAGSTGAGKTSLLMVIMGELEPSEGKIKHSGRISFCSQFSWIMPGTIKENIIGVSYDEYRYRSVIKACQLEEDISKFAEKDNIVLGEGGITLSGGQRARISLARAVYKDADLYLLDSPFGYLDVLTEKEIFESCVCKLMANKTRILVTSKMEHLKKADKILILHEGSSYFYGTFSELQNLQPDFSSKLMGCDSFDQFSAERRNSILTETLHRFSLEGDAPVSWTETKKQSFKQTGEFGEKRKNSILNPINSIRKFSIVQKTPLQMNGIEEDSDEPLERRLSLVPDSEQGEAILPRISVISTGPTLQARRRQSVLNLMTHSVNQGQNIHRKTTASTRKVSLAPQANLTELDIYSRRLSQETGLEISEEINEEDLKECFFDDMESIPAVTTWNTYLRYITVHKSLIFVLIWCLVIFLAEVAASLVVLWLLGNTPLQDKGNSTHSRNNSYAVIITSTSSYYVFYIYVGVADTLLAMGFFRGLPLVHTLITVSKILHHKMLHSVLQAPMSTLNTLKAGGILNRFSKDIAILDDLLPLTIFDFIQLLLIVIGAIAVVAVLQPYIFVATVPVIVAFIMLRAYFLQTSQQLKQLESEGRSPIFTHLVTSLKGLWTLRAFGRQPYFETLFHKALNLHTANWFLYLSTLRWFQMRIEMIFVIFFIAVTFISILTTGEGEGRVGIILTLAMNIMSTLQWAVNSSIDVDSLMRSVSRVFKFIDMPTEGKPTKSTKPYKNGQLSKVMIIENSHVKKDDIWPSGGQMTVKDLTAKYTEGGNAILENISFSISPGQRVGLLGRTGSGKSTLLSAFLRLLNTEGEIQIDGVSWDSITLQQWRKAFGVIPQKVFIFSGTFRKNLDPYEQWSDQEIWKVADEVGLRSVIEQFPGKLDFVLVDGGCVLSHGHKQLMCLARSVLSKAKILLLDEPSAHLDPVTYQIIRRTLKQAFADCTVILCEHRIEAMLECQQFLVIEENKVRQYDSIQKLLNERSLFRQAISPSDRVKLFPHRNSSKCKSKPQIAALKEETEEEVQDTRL

C[C@@H]1CCCCC[C@](O)(C(F)(F)F)C2=NN=C(O2)c2nc(c(C(F)(F)F)cc2N)O1 [Compound I, (6R,12R)-17-amino-12-methyl-6,15-bis(trifluoromethyl)-13,19-dioxa-3,4,18-triazatricyclo[12.3.1.12,5]nonadeca-1(18),2,4,14,16-pentaen-6-ol]
EC50 [1]: < 500 nM
safety and tolerability [2]: generally safe and well-tolerated
